Where two headings read alike, the source gives them in different places.
How the values were obtained:
[1] = 2.0 g once orally; cited from earlier work
[2] = Pharmacokinetics of the composition after oral administration; format: in vivo; details: rats, serum; for AUC(0-inf) / Cmax: rat
Experimental: Mangiferin is suspended in 1% carboxymethyl cellulose sodium solution, the concentration of mangiferin is 25 mg/mL (Sample A).
Berberine is suspended in 1% carboxymethyl cellulose sodium solution, the concentration of berberine is 25 mg/mL (Sample B). The composition which is composed of mangiferin and berberine in the ratio of 1:4 is suspended in 1% carboxymethyl cellulose sodium solution, the concentration of the composition is 50 mg/mL (Sample C).
All rats were fasted for 16 hours and drunk water freely. The rats are oral administrated respectively sample A (40 mg/kg), sample B (160 mg/kg) and sample C (200 mg/kg). From the rats, 0.4 ml blood samples were taken respectively at the time of 5 minutes before oral administrated and 0 h, 1 h, 2 h, 3 h, 4 h, 5 h, 6 h, 8 h, 10 h, 12 h, 15 h, and 24 h after oral administrated. These blood samples were put into centrifuge tube containing heparin, then were centrifuged for 10 minutes, the serum is obtained.
Serum samples are taken accurately 100 μL into centrifuge tubes, then 400 μL acetonitrile-acetic acid (9:1) is added into centrifuge tubes. The samples are whorled for 1.5 minutes, and then the samples are centrifuged 3000 r/min for 10 minutes. The supernatant was put into clear tube, dried by nitrogen, 100 μL mobile phase were put into the remnants, whorled for 1.5 minutes, then centrifuged 3000 r/min for 10 minutes. The Supernatant was put into sample bottle. All the samples are determined by HPLC. Injection volume is 20 μL.
4.1 Apparatus: Angilent 1100 HPLC (American Agilent Co.): include G1312A dual pump and G1313A Auto-Sampler.
Chromatographic column: discover ODS column (250 mm×6 mm, 5 μm);
The mobile phase: methanol-0.1% H3PO4 water.
Velocity of flow: 1.0 ml/min.
Detection Wavelength: 264 nm.

aldose reductase (AR) = target: T1, aldose reductase (AR) (Rattus norvegicus, UniProt P07943); experiment: Activity of aldose reductase (AR) of lens in GK rats; format: in vivo, Goto-Kakizaki rats (GK); details: oral daily 12 weeks, specific activity, in U/mg protein; for AR activity of lens NADH (0.1 mmol/L): NADH 0.1 mmol/L system; for AR activity of lens NADPH (0.1 mmol/L): NADPH 0.1 mmol/L system
T1 construct: from tissue; host or cells: lens of GK (Goto-Kakizaki) and Wistar rats
Experimental: GK rats control group (n=10); mangiferin groups (10, 30, 200 mg/kg, each group 10 rats); berberine groups (10, 20, 150 mg/kg, each group 10 rats); composition group 1[[mangiferin (10 mg/kg)+berberine (10 mg/kg)], 10 rats]; composition group 2[[mangiferin (200 mg/kg)+berberine (150 mg/kg)], 10 rats]. Wistar rats are normal control group (10 rats). GK rats control group and Wistar rats group were given saline. The other groups were given test drugs. Test samples were administrated orally at the same time every day for 12 weeks. […] At the End of the experiment, the left side lens of rats was taken, then these lenses were added into glycerol and put into refrigerator (−80° C.□) to preserve to determine AR activity. The determination method of AR activity refer to Maragoudakis's method and change slightly, that is: the activity of enzyme is indicated by the record of the absorbance of NADPH in 340 nm decline IOU. […] The second reaction system is 0.1 mmol/L NADH instead of NADPH, the rest of the reagent is same as one of the first response system. The activity of enzyme and the protein content in tissue homogenate are determined at the same time. a unit enzyme activity is indicated by the quantity of the enzyme that produce 1 μmol NADP^+ (or NDA^+) in one minute. […] The results have been calculated as mean±SD ( x±SD) and the comparisons of the data have been done by t-test. There are ten rats in every group. GK rats control group and wistar rats group were given saline. The other groups were given test drugs. Test samples were administrated orally at the same time every day for 12 weeks. The measurements are as same as the above experiment.

[3] = in vivo; cited from earlier work
[4] = cited from earlier work
rat = details: intraperitoneal injection once; cited from earlier work

SMILES	Adverse reactions [1]	AUC(0-inf) ([2]; sample B 160 mg/kg or sample C (1:4) 200 mg/kg, read-out: AUC0-∞ of berberine) [µg·h/mL]	Cmax ([2]; sample B 160 mg/kg or sample C (1:4) 200 mg/kg, read-out: Cmax of berberine) [ng/mL]	T1/2β of berberine ([2]; sample B 160 mg/kg or sample C (1:4) 200 mg/kg) [h]	AR activity of lens NADH (0.1 mmol/L) (aldose reductase (AR); 10 mg/kg)	AR activity of lens NADPH (0.1 mmol/L) (aldose reductase (AR); 10 mg/kg)	AR activity of lens NADH (0.1 mmol/L) (aldose reductase (AR); 20 mg/kg)	AR activity of lens NADPH (0.1 mmol/L) (aldose reductase (AR); 20 mg/kg)	AR activity of lens NADH (0.1 mmol/L) (aldose reductase (AR); 150 mg/kg)	AR activity of lens NADPH (0.1 mmol/L) (aldose reductase (AR); 150 mg/kg)	Bioavailability [3]	Solubility in water [4]	LD50 (rat) [mg/kg]	AUC(0-inf) ([2]; sample A 40 mg/kg or sample C (1:4) 200 mg/kg, read-out: AUC0-∞ of mangiferin) [µg·h/mL]	Cmax ([2]; sample A 40 mg/kg or sample C (1:4) 200 mg/kg, read-out: Cmax of mangiferin) [ng/mL]	T1/2β of mangiferin ([2]; sample A 40 mg/kg or sample C (1:4) 200 mg/kg) [h]	AR activity of lens NADH (0.1 mmol/L) (aldose reductase (AR); 30 mg/kg)	AR activity of lens NADPH (0.1 mmol/L) (aldose reductase (AR); 30 mg/kg)	AR activity of lens NADH (0.1 mmol/L) (aldose reductase (AR); 200 mg/kg)	AR activity of lens NADPH (0.1 mmol/L) (aldose reductase (AR); 200 mg/kg)
COc1ccc2cc3[n+](cc2c1OC)CCc1cc2c(cc1-3)OCO2 [Berberine]	we don't find any adverse reactions	3440 ± 250	54100 ± 2600	3.5 ± 0.3	2.98 ± 0.60	5.64 ± 2.19	1.32 ± 0.37	2.28 ± 0.51	0.94 ± 0.45	1.87 ± 0.51	very low	–	–	–	–	–	–	–	–	–
O=c1c2cc(O)c(O)cc2oc2cc(O)c([C@@H]3O[C@H](CO)[C@@H](O)[C@H](O)[C@H]3O)c(O)c12 [Mangiferin]	–	–	–	–	2.89 ± 0.69	5.36 ± 2.17	–	–	–	–	–	cannot dissolve in water	365	1200 ± 391	18600 ± 1500	4.3 ± 0.4	1.64 ± 0.42	3.05 ± 0.59	0.94 ± 0.45	1.87 ± 0.51

From patent publication US7867979B2, “Drug composition for treating 2 type diabetes and diabetic chronicity complications” (Hainan Deze Drug Research Co., Ltd., priority 2006, dated 2011)
